According to paper PMC10635799, “Analogs of FTY720 inhibit TRPM7 but not S1PRs and exert multimodal anti-inflammatory effects” (The Journal of General Physiology, 2023):

Tests used:
lymphocytes = system: lymphocytes; parameters: method as in Brinkmann et al., 2002; Zhu et al., 2007; settings: ref Brinkmann et al., 2002; Zhu et al., 2007; cited from earlier work
[1] = system: LPS-induced endotoxemia in mice; experiment: Lethal dose (LD50) LPS mouse model; assay type: in vivo; settings: LD50 LPS + 30 mg/kg
S1P receptors = settings: ref Brinkmann et al., 2002; Zhu et al., 2007; cited from earlier work
mouse TRPM7 = target: T1, mouse TRPM7 (Mus musculus, UniProt Q923J1); experiment: Whole-cell patch clamp of TRPM7 current (IM7) in HEK 293T cells overexpressing mouse TRPM7; assay type: cell-based
T1 construct: expressed in transfected cells; host or cells: HEK 293T cells (CRL-3216; ATCC), transient transfection with jetOPTIMUS, co-transfected eGFP as a separate plasmid
Protocol: To overexpress TRPM7, HEK 293T cells were plated at a density of 500,000 cells per well (day 0), transfected at 80–90% confluency (day 1), and were patched 24–36 h after transfection (day 2). TRPM7 overexpression was performed using WT mouse TRPM7 (2.5 µg plasmid DNA; [Desai et al., 2012]) and jetOPTIMUS DNA Transfection Reagent (101000006; Polyplus). To enhance the selection rate of TRPM7-overexpressing cells, eGFP (#22152; Addgene) was included at a 1:10 dilution (0.25 µg) and only GFP-positive cells were patched.
Whole-cell patch clamp electrophysiology was performed as described previously ([Schappe et al., 2022]). Briefly, the external solution contained (in mM) 140 Na-methanesulfonate, 5 Cs-gluconate, 2.5 CaCl2, and 10 HEPES, pH 7.4 (adjusted with NaOH), at an osmolality of 280–290 mOsm/kg. The internal pipette solution contained (in mM) 115 Cs-gluconate, 3 NaCl, 0.75 CaCl2, 10 HEPES, 10 HEDTA, 1.8 Cs4-BAPTA, and 2 Na2ATP, pH 7.3 (adjusted with CsOH), at an osmolality of 273 mOsm/kg. Intracellular free [Ca^2+] was estimated to be ∼100 nM using the online WEBMAXC standard calculator at https://somapp.ucdmc.ucdavis.edu/pharmacology/bers/maxchelator/webmaxc/webmaxcS.htm ([Bers et al., 2010]). Recordings were captured in pCLAMP 9 (Molecular Devices) using a 400-ms ramp protocol from −100 to +100 mV and a holding potential of 0 mV. Sampling was performed at 10 kHz with a 5 kHz low-pass band filter using an Axopatch 200B amplifier (Molecular Devices). All electrophysiology experiments were conducted at RT (∼23°C). […] Similarly, the minimum current for each inhibitor dose is taken as the stable minimum current observed after the drug has had time to exert an effect and after the flow-driven transient increase has subsided.
Data were analyzed using Microsoft Excel, Prism 9.5 (GraphPad Software), and Origin Pro 7.5 (OriginLab). Chemical structures were created using ChemDraw Professional 20.1.1 (PerkinElmer). Electrophysiology traces were plotted using Origin Pro 7.5, and the remaining data were plotted and statistically tested using Prism. Outliers were determined using the robust regression and outlier removal (ROUT) function within Prism. IC50 values were determined by plotting the percentage of maximum current observed as a function of applied drug concentration. A non-linear regression was fit using a standard Hill slope of −1.0 and the model: Y=100/[1+([Inhibitor]/IC50)]. Where appropriate, data are presented as individual values; otherwise the sample sizes and precision measures are indicated in the figure legends. P values of <0.05 were considered statistically significant.

HeLa cells = experiment: LDH-release cytotoxicity assay; assay type: cell-based; settings: 24 h
Protocol: WT HeLa cells were plated at a density of 10,000 cells per well into a 96-well tissue culture microplate (3610; Costar). AAL-149, VPC01091.4, or vehicle at 0.1, 1, 5, 10, and 25 μM was added to cells with media for a final volume of 100 μl and incubated for 24 h. LDH release was quantified using a CyQUANT LDH Cytotoxicity Assay (C20300; Thermo Fisher Scientific) and a FlexStation 3 plate reader using SoftMax […] (Molecular Devices).

BV-2 microglia = experiment: LPS-induced cytokine expression in BV-2 microglia (qRT-PCR); assay type: cell-based, mouse; settings: 10 µM pretreatment, LPS 1 µg/ml for 3 h
Protocol: RAW 264.7 macrophages or BMDMs were seeded at a density of 250,000 cells per well into a 12-well tissue culture plate in 1 ml of media and left to incubate overnight. The indicated drug or vehicle control was added to each well, and the plate was agitated and left to incubate for 10 min. The cells were then treated with LPS (1 μg/ml) or an equivalent volume of PBS, agitated, and left to incubate for 3 h. Cells were washed with PBS and then RNA isolation was performed using RNeasy Plus Micro Kit (74134; Qiagen). cDNA was produced using GoScript Reverse Transcriptase ([…]; Promega) and a quantitative PCR was performed using SensiFast SYBR (98020; Bioline) and Bio-Rad CFX Connect thermocycler. Each datum represents an individual, biological replicate that is the mean of duplicate technical replicates. Fold-changes are all reported relative to untreated controls for each experiment and were calculated using the ΔΔCt method, with β2-microglobulin used as the housekeeping gene for each sample. The experiment was performed similarly with BV-2 microglia and alveolar macrophages, except that cells were plated at a density of 100,000 cells per well into a 24-well tissue culture plate with 1 ml of media per well.

T1 sequence (Q923J1 whole entry): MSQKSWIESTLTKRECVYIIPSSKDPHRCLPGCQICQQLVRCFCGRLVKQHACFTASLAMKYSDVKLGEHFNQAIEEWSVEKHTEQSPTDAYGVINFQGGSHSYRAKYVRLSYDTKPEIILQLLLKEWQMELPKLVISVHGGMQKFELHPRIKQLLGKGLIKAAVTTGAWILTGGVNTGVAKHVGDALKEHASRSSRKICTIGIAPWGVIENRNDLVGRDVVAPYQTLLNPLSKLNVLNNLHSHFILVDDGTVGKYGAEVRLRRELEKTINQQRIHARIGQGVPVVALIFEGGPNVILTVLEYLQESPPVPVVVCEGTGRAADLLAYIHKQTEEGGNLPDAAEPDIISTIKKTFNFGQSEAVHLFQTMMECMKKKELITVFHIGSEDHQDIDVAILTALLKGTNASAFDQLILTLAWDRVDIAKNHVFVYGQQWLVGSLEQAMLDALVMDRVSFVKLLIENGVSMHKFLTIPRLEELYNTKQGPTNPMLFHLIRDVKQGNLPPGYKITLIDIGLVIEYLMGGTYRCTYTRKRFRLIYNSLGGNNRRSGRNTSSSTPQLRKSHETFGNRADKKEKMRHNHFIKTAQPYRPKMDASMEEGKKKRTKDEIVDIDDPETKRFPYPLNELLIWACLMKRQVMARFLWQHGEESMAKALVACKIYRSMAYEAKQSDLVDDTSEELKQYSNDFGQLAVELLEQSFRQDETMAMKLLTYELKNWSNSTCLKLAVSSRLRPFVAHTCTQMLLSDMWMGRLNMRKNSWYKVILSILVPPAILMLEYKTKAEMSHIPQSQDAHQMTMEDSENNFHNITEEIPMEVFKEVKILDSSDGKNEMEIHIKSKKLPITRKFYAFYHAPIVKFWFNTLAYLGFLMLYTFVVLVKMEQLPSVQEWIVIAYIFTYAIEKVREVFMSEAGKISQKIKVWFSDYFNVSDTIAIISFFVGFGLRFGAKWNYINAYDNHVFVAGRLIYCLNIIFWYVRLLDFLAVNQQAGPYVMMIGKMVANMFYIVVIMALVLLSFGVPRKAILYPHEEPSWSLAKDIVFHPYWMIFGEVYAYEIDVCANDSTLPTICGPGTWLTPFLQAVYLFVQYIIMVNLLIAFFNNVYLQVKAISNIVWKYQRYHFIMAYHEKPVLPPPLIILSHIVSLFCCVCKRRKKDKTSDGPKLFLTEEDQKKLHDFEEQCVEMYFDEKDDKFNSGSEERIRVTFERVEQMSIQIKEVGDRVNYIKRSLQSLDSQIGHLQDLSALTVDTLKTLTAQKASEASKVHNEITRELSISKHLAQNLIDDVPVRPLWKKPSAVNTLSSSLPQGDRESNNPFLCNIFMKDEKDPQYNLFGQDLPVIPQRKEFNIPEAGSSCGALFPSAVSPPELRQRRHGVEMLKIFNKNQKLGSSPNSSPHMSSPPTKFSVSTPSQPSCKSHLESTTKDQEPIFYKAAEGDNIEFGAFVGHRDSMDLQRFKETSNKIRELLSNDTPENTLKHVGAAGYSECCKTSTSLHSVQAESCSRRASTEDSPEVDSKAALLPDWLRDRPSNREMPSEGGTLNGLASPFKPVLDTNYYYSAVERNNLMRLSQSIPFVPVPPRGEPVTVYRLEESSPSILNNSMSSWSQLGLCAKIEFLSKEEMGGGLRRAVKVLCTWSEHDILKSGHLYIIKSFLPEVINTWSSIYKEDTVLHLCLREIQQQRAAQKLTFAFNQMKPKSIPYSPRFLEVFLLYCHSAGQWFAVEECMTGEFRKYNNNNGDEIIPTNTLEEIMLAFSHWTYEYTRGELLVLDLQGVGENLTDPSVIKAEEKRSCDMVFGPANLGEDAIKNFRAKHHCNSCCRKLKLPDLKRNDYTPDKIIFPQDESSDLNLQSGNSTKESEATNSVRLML

SMILES: CCCCCCCCc1ccc([C@@H]2CC[C@@](N)(CO)C2)cc1 [VPC01091.4, ((1S,3R)-1-amino-3-(4-octylphenyl)cyclopentyl)methanol]
- Lymphopenia when administered to mice (lymphocytes): do not evoke lymphopenia
- Survival rate ([1]; 132 h, LPS-only 50%, control 100%, P = 0.127): 83.33%
- Clinical scores (symptoms) ([1]; vs LPS only, 132 h): significantly reduced at a number of timepoints
- Weight change from baseline ([1]; vs LPS only, after first 48 h): recovering at a higher nadir and at an earlier timepoint
- Activity at S1P receptors (S1P receptors): not active
- Effect on whole-cell TRPM7 current (IM7) (mouse TRPM7; 5 µM): current inhibition
- IC50 (mouse TRPM7; peak current at +100 mV, HEK 293T overexpressing mouse TRPM7, Hill slope -1.0, read-out: IC50 for inhibition of TRPM7 current (IM7)): 0.665 µM
- Cytotoxicity (LDH release) (HeLa cells; 25 μM, compared with positive control of 100% cytotoxicity): 4%
- Cytotoxicity (LDH release) (HeLa cells; dosages up to 10 µM): did not result in any significant cytotoxicity
- Mean cytotoxicity (LDH release) (HeLa cells; each dose up to 25 µM): < 5%
- LPS-induced inflammatory cytokine expression (BV-2 microglia): direct anti-inflammatory effects
